Results from article PMC8297402, “Trifluoromethyl-substituted 3,5-bis(arylidene)-4-piperidones as potential anti-hepatoma and anti-inflammation agents by inhibiting NF-кB activation” (Journal of Enzyme Inhibition and Medicinal Chemistry, 2021).
Where “and” joins values, the source holds several entries; their conditions need not be identical. Equal entries are not always repeated. Where two headings read alike, the source gives them in different places.

Assays:
[1] = system: A2780; experiment: Modified MTT cytotoxicity assay, A2780; settings: for SI (selectivity index) A2780: quotient of IC50 for normal (HHL-5) and malignant (A2780) cells
Description: (§3) To further verify the anti-tumour activity, one human non-small cell lung cancer cell line (A549), one human ovarian cancer cell line (A2780), and one human normal heptical cell line (HHL-5) were screened by BAPs (4–30) using a modified MTT assay (Supporting Information). DOX and curcumin were selected as positive controls.
(§4) The optical density (OD) value of each well was measured on a
(§5) multi-well plate reader (TECAN, Mӓnnedorf, Switzerland ) at 570 nm.
(§6) Every IC 50 value was the average of three replicates.
(§7) Doxorubicin (DOX) and Curcumin were used as positive controls.

[2] = system: A549; experiment: Modified MTT cytotoxicity assay, A549; settings: for SI (selectivity index) A549: quotient of IC50 for normal (HHL-5) and malignant (A549) cells
Description: as §3, §4, §5, §6, §7

[3] = system: HepG2; experiment: Modified MTT cytotoxicity assay, HepG2; type: cell-based, Human; settings: for SI (selectivity index) HepG2: quotient of IC50 for normal (LO2) and malignant (HepG2) cells; for SI value, average: average of SI for HepG2 and SMMC-7721
Description: (§1) The HepG2, SMMC-7721, and LO2 cell lines were maintained at 37 °C, 5% humidified CO2, and 95% atmosphere. Dulbecco's Modified Eagle (DMEM) medium containing 10% foetal bovine serum (FBS) was used for culturing the HepG2 cell line; meanwhile, Roswell Park Memorial Institute (RPMI) 1640 medium containing 10% FBS was used for culturing other cell lines (SMMC-7721, LO2). The HepG2, SMMC-7721 and LO2 cells were seeded in a 96-well plate in 200 μL of medium per well at a density of approximately 8 × 10^3 cells/well and cultured for 24 h, followed by incubation in an incubator of indicated compounds with successive concentrations (10, 5, 2.5, 1.25, 0.625, 0.3125 μg/mL) for 24 h. In the control group, cells were only cultured with culture media. After the media were removed, 20 μL of MTT (5 mg/mL) was added, then cells were incubated for 4 h at 37 °C. […] GraphPad Prism 5 software was used to calculate their IC50 values. Every IC50 value was the average of three replicates. Doxorubicin (DOX) and curcumin were used as positive controls.

[4] = system: TNF-α; experiment: ELISA of TNF-α release in LPS-stimulated RAW264.7 cells; type: cell-based, mouse; settings: for Inhibition rate TNF-α: BAPs (5 μM) + LPS (1 μg/mL); for Inhibition rate TNF-α / inhibition at 5 µM: RAW264.7, ELISA; for Inhibition rates against IL-6 and TNF-α cytokine release, average: average of TNF-α and IL-6, 5 μM + LPS, RAW264.7; for inhibition at 5 µM: Mus musculus, RAW264.7, BAPs (5 μM) + LPS (1 μg/mL), read-out: Inhibition rate TNF-α
Description: (§2) We tested by inhibiting the secretion of TNF-α and IL-6 to better evaluated the anti-inflammatory effects of BAPs. […] Under the stimulation of LPS (1.0 μg/mL) with RAW264.7 cells, the release of TNF-α and IL-6 was detected. Besides, after treated with BAPs (5.0 μM) and LPS (1.0 μg/mL), the release of TNF-α and IL-6 was measured with an ELISA kit (eBioScience, San Diego, California), respectively. In general terms, pyrrolidine dithiocarbamate (PDTC, 30 μM) or BAP (5.0 μM) was used to pretreat cells for 2 h, respectively. Then, LPS (1.0 μg/mL) was added and cells were incubated for another 22 h. Finally, the culture media were centrifuged at 1000 rpm for 10 min, and the expression levels of TNF-α and IL-6 were determined by ELISA.

[5] = system: LO2; experiment: Modified MTT cytotoxicity assay, normal heptical cell line LO2; type: cell-based, human; settings: 24 h incubation
Description: as §1

[6] = system: HHL-5; experiment: Modified MTT cytotoxicity assay, normal heptical cell line HHL-5; settings: read-out: Cytotoxicity IC50 HHL-5; MTT, normal heptical cell line
Description: as §3, §4, §5, §6, §7

[7] = system: SMMC-7721; experiment: Modified MTT cytotoxicity assay, SMMC-7721; type: cell-based, Human; settings: for IC50: MTT, 24 h incubation, three replicates; for SI (selectivity index) SMMC-7721: quotient of IC50 for normal (LO2) and malignant (SMMC-7721) cells
Description: as §1

[8] = system: IL-6; experiment: ELISA of IL-6 release in LPS-stimulated RAW264.7 cells; type: cell-based, mouse; settings: RAW264.7, ELISA; for Inhibition rate IL-6: BAPs (5 μM) + LPS (1 μg/mL); for inhibition at 5 µM: Mus musculus, RAW264.7, BAPs (5 μM) + LPS (1 μg/mL), read-out: Inhibition rate IL-6
Description: as §2

[9] = system: RAW264.7 cell; experiment: MTT toxicity pre-experiment on RAW264.7 macrophagocyte; type: cell-based, mouse; settings: for Survival rate RAW264.7 cell: BAPs 5 μM; for viability at 5 µM: Mus musculus, RAW264.7, BAPs 5 μM, read-out: Survival rate RAW264.7 cell
Description: Lipopolysaccharide (LPS) is a key constituent of Gram-negative bacterial endotoxin, which is used to induce an inflammatory response in corresponding inflammatory cells. TNF-α and IL-6 are two kinds of representative pro-inflammatory factors, which produced by LPS-stimulated RAW264.7 macrophage. In our pre-experiments, the toxicity against RAW264.7 macrophagocyte for all title compounds was tested by the MTT assay, and the results were listed in Table 2. The survival rates were above 80% for all BAPs (4-30) at the concentration of 5.0 μM.

[10] = Modified MTT cytotoxicity assay, normal heptical cell line LO2; type: cell-based, human; settings: human, LO2 cells (normal hepatic cell line), 24 h incubation
Description: as §1

[11] = Modified MTT cytotoxicity assay, normal heptical cell line HHL-5; settings: human, HHL-5 cells (normal hepatic cell line)
Description: as §3, §4, §5, §6, §7

[12] = read-out: Cytotoxicity IC50 A2780, MTT, ovarian cancer cell line
[13] = read-out: Cytotoxicity IC50 A549, MTT, non-small cell lung cancer cell line
[14] = MTT, 24 h incubation, three replicates, read-out: Cytotoxicity IC50 HepG2
[15] = average of HepG2 and SMMC-7721, read-out: Cytotoxicity against HCC cells, average
[16] = Homo sapiens, A2780, read-out: Cytotoxicity IC50 A2780, MTT, ovarian cancer cell line
[17] = Homo sapiens, A549, read-out: Cytotoxicity IC50 A549, MTT, non-small cell lung cancer cell line
[18] = Homo sapiens, HepG2, 24 h, MTT, 24 h incubation, three replicates, read-out: Cytotoxicity IC50 HepG2

Compound | SI (selectivity index) A2780 [1] | IC50 [1, 12] [µM] | SI (selectivity index) A549 [2] | IC50 [2, 13] [µM] | IC50 [3, 14] [µM] | SI (selectivity index) HepG2 [3] | Inhibition rate TNF-α [4] [%] | IC50 [5] [µM] | IC50 [7] [µM] | SI (selectivity index) SMMC-7721 [7] | Survival rate RAW264.7 cell [9] | IC50 [1, 16] [µM] | IC50 [2, 17] [µM] | IC50 [3, 18] [µM] | inhibition at 5 µM [4] [%] | IC50 at 24 h [10] [µM] | IC50 [11] [µM] | IC50 ([7]; Homo sapiens, SMMC-7721, 24 h) [µM] | inhibition at 5 µM [8] [%] | viability at 5 µM [9] [%] | further results
CC(=O)Nc1ccc(S(=O)(=O)N2C/C(=C\c3ccccc3C(F)(F)F)C(=O)/C(=C/c3ccccc3C(F)(F)F)C2)cc1 [BAP 12] | 6.5 | 1.22 ± 0.06 | 3.3 | 2.39 ± 0.09 | 12.9 ± 0.1 | 1.2 | 67.2 ± 2.4 | 15.6 ± 1.3 | 10.9 ± 0.4 | 1.4 | 86.4 ± 0.7% |  |  |  |  |  |  |  |  |  | IC50 [6]: 7.9 ± 0.2 µM; Inhibition rate IL-6 [8]: 62.8 ± 3.0%
N#Cc1ccc(S(=O)(=O)N2C/C(=C\c3ccc(C(F)(F)F)cc3)C(=O)/C(=C/c3ccc(C(F)(F)F)cc3)C2)cc1 [BAP 29] | 91.7 | ~0.18 | 203.7 | ~0.081 | 1.7 ± 0.1 |  |  | 21.5 ± 1.5 | 1.3 ± 0.3 | 16.5 | 83.4% and 83.4 ± 3.3% |  |  |  |  |  |  |  |  |  | IC50 ([1]; read-out: Cytotoxicity IC50 A2780, MTT, ovarian cancer cell line, listed as 29): 0.18 ± 0.01 µM; SI (selectivity), bound stated for A549 and A2780 together ([2]; A549 and A2780 vs HHL-5): > 90; IC50 ([2]; read-out: Cytotoxicity IC50 A549, MTT, non-small cell lung cancer cell line, listed as 29): 0.081 ± 0.004 µM; IC50 [3, 15]: 1.5 µM; SI value, average [3]: 14; Inhibition rates against IL-6 and TNF-α cytokine release, average [4]: 73.4%; IC50 [6]: 16.5 ± 0.3 µM
O=C1/C(=C/c2ccccc2C(F)(F)F)CN(S(=O)(=O)c2ccccc2)C/C1=C\c1ccccc1C(F)(F)F [BAP 4] | 0.2 | 54 ± 12 | 3.8 | 2.24 ± 1.23 | ~9.2 | 1.8 | 62.1 ± 4.7 | 16.4 ± 0.2 | ~8.2 | 2.0 | 82.2 ± 2.0% |  |  |  |  |  |  |  |  |  | IC50 ([3]; MTT, 24 h incubation, three replicates, listed as 4, read-out: Cytotoxicity IC50 HepG2): 9.2 ± 0.2 µM; IC50 ([7]; listed as 4): 8.2 ± 0.6 µM; Inhibition rate IL-6 [8]: 70.7 ± 1.3%
O=C1/C(=C/c2ccc(C(F)(F)F)cc2)CN(S(=O)(=O)c2ccccc2)C/C1=C\c1ccc(C(F)(F)F)cc1 [BAP 22] |  |  |  |  |  |  |  |  |  |  |  | 0.17 ± 0.06 | 0.18 ± 0.02 | ~1.8 | 65.2 ± 1.3 | 18.2 ± 0.2 | 7.9 ± 0.1 | ~8.5 | 68.3 ± 1.3 | 89.4 ± 7.8 | 
N#Cc1ccc(S(=O)(=O)N2C/C(=C\c3cccc(C(F)(F)F)c3)C(=O)/C(=C/c3cccc(C(F)(F)F)c3)C2)cc1 [BAP 20] | 16.0 |  | 14.1 |  |  | 19.3 |  |  |  | 4.0 |  | 0.15 ± 0.02 | 0.17 ± 0.002 | 0.9 ± 0.1 | 75.2 ± 2.7 | 17.4 ± 0.1 | 2.4 ± 0.4 | 4.3 ± 0.2 | 77.7 ± 1.5 | 83.7 ± 1.3 | 
O=C1/C(=C/c2ccc(C(F)(F)F)cc2)CN(S(=O)(=O)c2ccc(Br)cc2)C/C1=C\c1ccc(C(F)(F)F)cc1 [BAP 28] | 115.0 |  | 103.5 |  |  | 8.4 |  |  |  | 7.5 |  | 0.18 ± 0.04 | 0.2 ± 0.02 | 1.7 ± 0.2 | > 70 | 14.2 ± 0.3 | 20.7 ± 0.5 | 1.9 ± 0.2 | > 70 | 84 ± 3.6 | 
O=C1/C(=C/c2ccc(C(F)(F)F)cc2)CN(S(=O)(=O)c2ccc(F)cc2)C/C1=C\c1ccc(C(F)(F)F)cc1 [BAP 26] | 38.0 | 0.297 ± 0.05 | 70.6 | 0.16 ± 0.05 | 3.1 ± 0.2 | 5.1 | 66.3 ± 5.3 | 15.7 ± 0.2 | 3.1 ± 0.1 | 5.1 | 87.6 ± 1.7% |  |  |  |  |  |  |  |  |  | Inhibition rate IL-6 [8]: 62.8 ± 3.0%
O=C1/C(=C/c2ccccc2C(F)(F)F)CN(S(=O)(=O)c2ccc(Cl)cc2)C/C1=C\c1ccccc1C(F)(F)F [BAP 9] |  |  |  |  |  |  |  |  |  |  |  | 0.62 ± 0.07 | 1.86 ± 0.61 | 11 ± 0.3 | 47.1 ± 6.4 | 30.9 ± 0.3 | 9.3 ± 0.1 | 10.4 ± 0.3 | 38.2 ± 2.5 | 92.8 ± 4.2 | 
O=C1/C(=C/c2ccc(C(F)(F)F)cc2)CN(S(=O)(=O)c2ccc(C(F)(F)F)cc2)C/C1=C\c1ccc(C(F)(F)F)cc1 [BAP 25] | 39.6 | 0.28 ± 0.03 | 41.1 | 0.27 ± 0.03 | 0.9 ± 0.2 | 20.3 |  | 18.3 ± 0.6 | 1.3 ± 0.3 | 14.1 | 87.3% and 87.3 ± 4.2% |  |  |  |  |  |  |  |  |  | IC50 [3, 15]: 1.1 µM; SI value, average [3]: 17.2; Inhibition rates against IL-6 and TNF-α cytokine release, average [4]: 78.6%; IC50 [6]: 11.1 ± 0.2 µM
